Measured values taken from patent publication US5434266A, “Monosaccharide analog-based glycosidase inhibitors” (priority 1993, dated 1995).
Like-named read-outs stand apart in the source and are kept apart here.

Columns and labels:
mannosidases = details: cited from earlier work
[1] = molecular target: green coffee bean α-galactosidase (Coffea arabica, UniProt Q42656); assay: Glycosidase inhibition, green coffee bean α-galactosidase; format: biochemical; details: coffeebean galactosidase
Method: (§1) pH for Enzyme Assays--Yeast e-glucosidase and green coffee bean α-galactosidase were assayed at pH 6.6. Almond β-glucosidase and jackbean α-mannosidase were assayed at pH 5.0. Bovine liver β-galactosidase was assayed at pH 7.0.
(§2) Working Enzyme Solutions--Typical enzyme concentrations in the assay buffer for inhibitor screening were as follows: yeast α-glucosidase, 10 μL of enzyme suspension in 2.00 mL pH 6.6 phosphate-citrate buffer; almond β-glucosidase, 25 μL of enzyme solution (0.4 mg solid enzyme in 70 μL pH 5.0 NaCl/NaOAc buffer) in 5.00 mL pH 5.0 NaCl/NaOAc buffer; jackbean α-mannosidase, 5-8 μL of enzyme suspension in 2.00 mL NaCl/NaOAc buffer; green coffee bean α galactosidase, 15 μL of enzyme suspension in 1.2 mL NaCl/NaOAc buffer; bovine liver β-galactosidase, 1.7 mg solid enzyme in 850 μL, NaCl/NaOAc buffer.
(§3) An acceptable concentration of enzyme, upon hydrolysis of the corresponding glycoside, should give an absorbance reading between 0.4 and 2.0 at 400 nm. A control assay was first performed to determine whether the enzyme concentration was acceptable. The assays involved addition of working enzyme solution (0.09 mL) and deionized water (0.18 mL) to buffer at the appropriate pH (0.09 mL, phosphate-citrate). […] The absorbance of the resulting solution was measure at 400 nm. Once this control run of the system gave an absorbance within 0.4-2.0, the potential inhibitors were assayed against this working enzyme solution at final inhibitor and substrate concentrations of 1 and 5 mM, respectively. […]
(§4) Five substrate solutions (usually […]) and five inhibitor solutions (usually 0-200 μM) were prepared. […] The amound of released p-nitrophenolate was measured spectrophotometrically at 400 nm. […]
(§5) The velocities (V) of substrate hydrolysis at every combination of inhibitor [I] and substrate [S] concentrations were determined by plotting the absorbance values with respect to time and t]hen calculating the slopes of the lines. […] KI values were also calculated from Hanes-Woolf plots of [S]/V vs. [S] by replotttng the [S]/V intercepts versus [I] and ascertaining the [I] intercept. […]

[2] = molecular target: T1, bovine liver β-galactosidase (Bos taurus, UniProt F1MNT6); assay: Glycosidase inhibition / KI determination, bovine liver β-galactosidase; format: biochemical
T1 construct: from tissue; host or cells: bovine liver
T1 sequence (F1MNT6 1-469): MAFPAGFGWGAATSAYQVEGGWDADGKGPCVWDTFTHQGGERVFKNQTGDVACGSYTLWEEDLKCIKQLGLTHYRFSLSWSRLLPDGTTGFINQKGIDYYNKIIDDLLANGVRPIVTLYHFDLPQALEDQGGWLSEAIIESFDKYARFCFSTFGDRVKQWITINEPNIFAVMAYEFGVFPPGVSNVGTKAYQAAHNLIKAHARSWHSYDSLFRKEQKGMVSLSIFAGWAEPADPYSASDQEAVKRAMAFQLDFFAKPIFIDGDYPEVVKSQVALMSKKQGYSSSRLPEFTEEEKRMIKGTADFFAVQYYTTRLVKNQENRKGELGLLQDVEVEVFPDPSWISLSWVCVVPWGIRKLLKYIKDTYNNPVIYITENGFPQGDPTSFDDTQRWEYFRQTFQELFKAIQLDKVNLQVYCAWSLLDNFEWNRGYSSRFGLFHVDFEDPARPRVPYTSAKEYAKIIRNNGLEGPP
Method: as §1, §2
(§6) An acceptable concentration of enzyme, upon hydrolysis of the corresponding glycoside, should give an absorbance reading between 0.4 and 2.0 at 400 nm. A control assay was first performed to determine whether the enzyme concentration was acceptable. The assays involved addition of working enzyme solution (0.09 mL) and deionized water (0.18 mL) to buffer at the appropriate pH (0.09 mL, phosphate-citrate). The resulting solution was incubated at 37° C. for 5 minutes. Aliquots (0.1 mL) of this preincubation mixture was then added to three separate test tubes. Substrate (the corresponding p-nitrophenyl-D-glycoside, 0.1 mL, 10 mM in appropriate buffer), which had also been incubated at 37° C., was then added to each tube at thirty-second intervals. The hydrolyses were allowed to continue for 0.25 hours and then quenched by addition of glycine buffer (2.5 mL). The absorbance of the resulting solution was measure at 400 nm. Once this control run of the system gave an absorbance within 0.4-2.0, the potential inhibitors were assayed against this working enzyme solution at final inhibitor and substrate concentrations of 1 and 5 mM, respectively. In the inhibitor assays, deionized water was replaced by the inhibitor ([…] solution in deionized water). All inhibitors were tested in triplicate, with a control (by substituting the inhibitors with deionized water) and a standard.
(§7) Five substrate solutions (usually […]) and five inhibitor solutions (usually 0-200 μM) were prepared. To a 3-mL test tube were added buffer at the appropriate pH (0.28 mL, phosphate-citrate), working enzyme solution (0.28 mL) and inhibitor solution (0.56 mL). The solution was incubated at 37° C. for 5 minutes. Aliquots (0.1 mL) of this solution were then pipetted into ten separate test tubes. Substrate solution (0.1 mL) was then added to each tube at thirty-second intervals. Duplicate reactions were terminated by addition of glycine buffer (2.5 mL) at the end of 3, 6, 8, 10, and 12 minutes. The amound of released p-nitrophenolate was measured spectrophotometrically at 400 nm. The process was repeated for all combinations of inhibitor and substrate concentrations.
as §5, with “lines. Double reciprocal plots of 1/V versus 1/[S] at different [I] were then generated.” for “lines.”

yeast α-glucosidase = molecular target: T2, yeast α-glucosidase (Saccharomyces cerevisiae, UniProt P53341); assay: Glycosidase inhibition / KI determination, yeast α-glucosidase; format: biochemical
T2 construct: host or cells: yeast
T2 sequence (P53341 whole entry): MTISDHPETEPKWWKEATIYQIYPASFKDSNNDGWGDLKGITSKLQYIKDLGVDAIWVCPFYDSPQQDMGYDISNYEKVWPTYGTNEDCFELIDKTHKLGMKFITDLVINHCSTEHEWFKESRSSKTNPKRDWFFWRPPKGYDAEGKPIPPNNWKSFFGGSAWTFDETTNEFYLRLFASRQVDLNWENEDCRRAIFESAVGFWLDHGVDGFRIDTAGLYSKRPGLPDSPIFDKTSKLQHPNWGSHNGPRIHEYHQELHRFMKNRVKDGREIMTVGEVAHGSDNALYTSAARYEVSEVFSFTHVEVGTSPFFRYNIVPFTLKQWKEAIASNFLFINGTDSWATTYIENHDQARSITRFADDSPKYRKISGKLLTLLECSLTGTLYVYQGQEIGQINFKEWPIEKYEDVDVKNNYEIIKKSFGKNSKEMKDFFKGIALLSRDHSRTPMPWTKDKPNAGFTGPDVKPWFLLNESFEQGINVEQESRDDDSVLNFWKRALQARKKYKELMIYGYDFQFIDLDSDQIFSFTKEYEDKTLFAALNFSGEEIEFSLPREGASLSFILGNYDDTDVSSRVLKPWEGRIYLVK
Method: as §1, §2, §3, §4, §5

jackbean α-mannosidase = molecular target: T3, jackbean α-mannosidase (Canavalia ensiformis, UniProt C0HJB3); assay: Glycosidase inhibition / KI determination, jackbean α-mannosidase; format: biochemical
T3 construct: host or cells: jack bean
T3 sequence (C0HJB3 1-981): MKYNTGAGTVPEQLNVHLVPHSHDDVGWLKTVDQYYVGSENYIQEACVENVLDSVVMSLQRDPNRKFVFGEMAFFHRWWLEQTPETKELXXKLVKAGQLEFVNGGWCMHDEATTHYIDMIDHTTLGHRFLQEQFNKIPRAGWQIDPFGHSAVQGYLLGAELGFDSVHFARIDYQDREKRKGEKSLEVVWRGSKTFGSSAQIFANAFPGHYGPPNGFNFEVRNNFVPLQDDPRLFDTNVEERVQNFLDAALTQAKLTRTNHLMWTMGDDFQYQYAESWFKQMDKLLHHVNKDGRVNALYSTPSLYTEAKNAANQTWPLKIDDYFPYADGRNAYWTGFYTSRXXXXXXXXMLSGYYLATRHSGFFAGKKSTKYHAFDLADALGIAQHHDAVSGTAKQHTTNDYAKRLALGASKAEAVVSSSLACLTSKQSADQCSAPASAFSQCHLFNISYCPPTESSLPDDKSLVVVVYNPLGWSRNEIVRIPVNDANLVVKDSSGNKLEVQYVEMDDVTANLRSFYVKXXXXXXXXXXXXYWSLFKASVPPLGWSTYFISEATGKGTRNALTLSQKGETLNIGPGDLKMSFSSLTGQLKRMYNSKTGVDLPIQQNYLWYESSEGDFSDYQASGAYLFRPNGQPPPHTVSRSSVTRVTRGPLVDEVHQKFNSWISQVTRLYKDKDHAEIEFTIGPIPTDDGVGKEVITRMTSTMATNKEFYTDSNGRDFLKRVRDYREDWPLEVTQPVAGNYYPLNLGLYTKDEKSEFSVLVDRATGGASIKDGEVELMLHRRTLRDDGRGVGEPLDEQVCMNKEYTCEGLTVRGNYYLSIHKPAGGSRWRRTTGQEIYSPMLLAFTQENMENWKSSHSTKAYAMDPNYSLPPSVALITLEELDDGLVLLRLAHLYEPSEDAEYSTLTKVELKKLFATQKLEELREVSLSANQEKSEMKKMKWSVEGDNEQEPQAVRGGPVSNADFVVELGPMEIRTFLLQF
Method: as §1, §2, §6, §7
(§8) The velocities (V) of substrate hydrolysis at every combination of inhibitor [I] and substrate [S] concentrations were determined by plotting the absorbance values with respect to time and t]hen calculating the slopes of the lines. Double reciprocal plots of 1/V versus 1/[S] at different [I] were then generated. The slopes of each of these lines were then plotted against [I] and the data were fitted to a straight line. The [I]-intercept gave the enzyme-inhibitor dissociation constant. KI values were also calculated from Hanes-Woolf plots of [S]/V vs. [S] by replotttng the [S]/V intercepts versus [I] and ascertaining the [I] intercept. KI values in the Table represent an average of the two calculations.

[3] = molecular target: T4, A. niger amyloglucosidase (Aspergillus niger, UniProt P69328); assay: Glycosidase inhibition, A. niger amyloglucosidase; format: biochemical; details: pH 5.0, read-out: amylo-Glu pH 5.0 (class)
T4 construct: host or cells: Aspergillus niger
T4 sequence (P69328 25-640): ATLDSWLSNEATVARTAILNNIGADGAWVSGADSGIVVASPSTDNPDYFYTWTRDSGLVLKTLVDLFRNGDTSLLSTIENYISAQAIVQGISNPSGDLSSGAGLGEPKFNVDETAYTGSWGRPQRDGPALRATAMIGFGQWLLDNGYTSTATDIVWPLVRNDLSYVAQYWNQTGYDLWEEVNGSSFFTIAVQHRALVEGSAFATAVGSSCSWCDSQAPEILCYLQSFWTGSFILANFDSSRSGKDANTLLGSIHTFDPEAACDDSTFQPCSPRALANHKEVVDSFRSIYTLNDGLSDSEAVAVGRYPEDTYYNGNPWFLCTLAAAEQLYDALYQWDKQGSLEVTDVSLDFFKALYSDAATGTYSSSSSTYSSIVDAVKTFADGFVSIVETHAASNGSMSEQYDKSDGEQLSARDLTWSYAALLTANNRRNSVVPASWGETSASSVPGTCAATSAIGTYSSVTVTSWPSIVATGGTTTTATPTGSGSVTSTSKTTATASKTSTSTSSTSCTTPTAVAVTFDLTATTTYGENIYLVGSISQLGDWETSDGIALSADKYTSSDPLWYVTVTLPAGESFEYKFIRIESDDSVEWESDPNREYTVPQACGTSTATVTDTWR
Method: as §6, §4, §5

almond β-glucosidase = assay: Glycosidase inhibition / KI determination, almond β-glucosidase; format: biochemical; details: pH 5.0, read-out: KI β-Glu pH 5.0
Method: as §1, §2, §6, §7, §8

HIV = details: cited from earlier work
glucosidases = details: cited from earlier work
galactosidases = details: cited from earlier work
[4] = pH 7.0, read-out: β-gal pH 7.0 (class)
[5] = pH 5.0, read-out: KI α-man pH 5.0
[6] = pH 7.0, read-out: KI β-gal pH 7.0

Sequence of green coffee bean α-galactosidase (Q42656 16-378): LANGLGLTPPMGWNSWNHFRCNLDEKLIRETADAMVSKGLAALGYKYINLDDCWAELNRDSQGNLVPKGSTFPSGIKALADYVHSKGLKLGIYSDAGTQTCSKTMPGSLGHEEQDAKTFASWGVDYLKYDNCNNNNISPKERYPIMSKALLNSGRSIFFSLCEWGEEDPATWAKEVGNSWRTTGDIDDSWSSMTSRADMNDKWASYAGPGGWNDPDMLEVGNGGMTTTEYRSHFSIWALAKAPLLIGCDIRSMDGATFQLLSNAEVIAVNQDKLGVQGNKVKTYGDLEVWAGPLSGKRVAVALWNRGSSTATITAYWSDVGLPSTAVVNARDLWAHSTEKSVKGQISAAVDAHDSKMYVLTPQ

**Q.** For `OC[C@H]1NC[C@@H](O)[C@@H](O)[C@@H]1O` [C, 1-deoxymannojirimycin], which mannosidase inhibition (mannosidases) is on record?
**A.** inhibits mannosidases

**Q.** For `NC1=N[C@H](CO)[C@@H](O)[C@H](O)[C@H]1O` [Compound 1, D-Glucoamidine], which “α-gal pH 6.6 (class)” value [1] is on record?
**A.** none

**Q.** What about the Ki [2, 4] of the same molecule?
**A.** < 100 µM

**Q.** What about the “α-Glu pH 6.6 (class)” value (yeast α-glucosidase) of the same molecule?
**A.** none

**Q.** What about the Ki (jackbean α-mannosidase; [5]) of the same molecule?
**A.** 9 µM

**Q.** And the Ki [3]?
**A.** > 1000 µM

**Q.** What about the Ki (almond β-glucosidase) of the same molecule?
**A.** 8 µM

**Q.** With `CN(C)C1=N[C@H](CO)[C@@H](O)[C@H](O)[C@H]1O` [Compound 2, D-Gluco-N,N-Dimethylamidine] as the molecule, how does the “α-gal pH 6.6 (class)” value [1] read?
**A.** none

**Q.** What about the Ki [2, 4] of the same molecule?
**A.** < 100 µM

**Q.** And the “α-Glu pH 6.6 (class)” value (yeast α-glucosidase)?
**A.** none

**Q.** What about the Ki (jackbean α-mannosidase; pH 5.0, read-out: α-man pH 5.0 (class)) of the same molecule?
**A.** < 100 µM

**Q.** And the Ki [3]?
**A.** > 1000 µM

**Q.** What about the Ki (almond β-glucosidase) of the same molecule?
**A.** 83 µM

**Q.** Which results are given for `NNC1=N[C@H](CO)[C@@H](O)[C@H](O)[C@H]1O` [Compound 8, D-Glucoamidrazone]?
**A.** Ki [2, 6]: 19 µM; Ki (jackbean α-mannosidase; [5]): 6.5 ± 3 µM; Ki (almond β-glucosidase): 8.4 ± 0.9 µM

**Q.** Which Ki [2, 6] does the source give for `NNC1=N[C@H](CO)[C@@H](O)[C@H](O)[C@@H]1O` [Compound 9, D-Mannoamidrazone] here?
**A.** 57 ± 2.5 µM

**Q.** What about the Ki (jackbean α-mannosidase; [5]) of the same molecule?
**A.** 0.166 ± 0.013 µM

**Q.** What about the Ki (almond β-glucosidase) of the same molecule?
**A.** 205 ± 25 µM

**Q.** What does the source list for `OC[C@H]1N=C(NO)[C@H](O)[C@@H](O)[C@@H]1O` [Compound 13, D-Glucoamidoxime]?
**A.** Ki (jackbean α-mannosidase; [5]): 10 ± 2 µM; Ki (almond β-glucosidase): 13.8 ± 3 µM

**Q.** For `OC[C@H]1N=C(NO)[C@@H](O)[C@@H](O)[C@@H]1O` [Compound 15, D-Mannoamidoxime], which Ki (jackbean α-mannosidase; [5]) is on record?
**A.** 2 ± 0.1 µM

**Q.** Which “effect on infectivity of HIV” value (HIV) does the source give for `OC[C@H]1NC[C@H](O)[C@@H](O)[C@@H]1O` [Compound B, 1-deoxynojirimycin] here?
**A.** interfere with the infectivity of HIV

**Q.** And the glucosidase inhibition (glucosidases)?
**A.** potent glucosidase inhibitors

**Q.** For `OC[C@H]1NC(O)[C@H](O)[C@@H](O)[C@H]1O` (stereo partly drawn) [D, galactostatin], which galactosidase inhibition (galactosidases) is on record?
**A.** inhibits galactosidases

**Q.** Which “α-gal pH 6.6 (class)” value [1] does the source give for `OC[C@H]1NC(O)[C@H](O)[C@@H](O)[C@@H]1O` (stereo partly drawn) [Nojirimycin, nojirimycin, reference compound] here?
**A.** mod-none

**Q.** What about the Ki [2, 4] of the same molecule?
**A.** > 1000 µM

**Q.** What about the Ki (yeast α-glucosidase; pH 6.6, read-out: KI α-Glu pH 6.6) of the same molecule?
**A.** 13 µM

**Q.** And the glucosidase inhibition (glucosidases)?
**A.** potent glucosidase inhibitors

**Q.** What about the “α-man pH 5.0 (class)” value (jackbean α-mannosidase) of the same molecule?
**A.** moderate

**Q.** And the Ki [3]?
**A.** > 1000 µM

**Q.** What about the Ki (almond β-glucosidase) of the same molecule?
**A.** 380 µM

**Q.** With `NC1O[C@H](CO)[C@@H](O)[C@H](O)[C@H]1O` (stereo partly drawn) [glucosylamine] as the molecule, how does the “inhibition of α- and β-glucosidases” value (glucosidases; α- and β-glucosidases) read?
**A.** inhibits both α- and β-glucosidases
